This is an account of results in patent US7560466B2, “Methods of treating or preventing autoimmune diseases with 2,4-pyrimidinediamine compounds” (Rigel Pharmaceuticals, Inc., priority 2003, dated 2009).

Where a name gives a salt, the structure may show the parent alone. Read-outs that look alike come from different tables or passages of the source.

This experiment concerns cultured human mast cells (CHMC), IgE-induced degranulation. The experiment is described as follows: CHMC low cell density IgE activation: tryptase assay. The format is cell-based. The note with it: CHMC low cell density. On the procedure:
Inhibition of degranulation was measured at both low and high cell density by quantifying the release of the granule specific factors tryptase, histamine and hexosaminidase. Inhibition of release and/or synthesis of lipid mediators was assessed by measuring the release of leukotriene LTC4 and inhibition of release and/or synthesis of cytokines was monitored by quantifying TNF-α, IL-6 and IL-13. Tryptase and hexosaminidase were quantified using fluorogenic substrates as described in their respective examples. […] The protocols of the various assays are provided below.
A second phase is performed to convert the expanded CD34-negative progenitor cells into differentiated mucosal mast cells. These mucosal cultured human mast cells (“CHMC”) are derived from CD34+ cells isolated from umbilical cord blood and treated to form a proliferated population of CD34-negative progenitor cells, as described above. […] Also, the cytokine composition of the medium was modified such that it contained SCF (200 ng/mL) and recombinant human IL-6 (200 ng/mL; Peprotech, Catalog No. 200-06 reconstituted to 100 ug/mL in sterile 10 mM acetic acid) (“CM/SCF/IL-6 medium”).
Pellet CHMC cells (980 rpm, 10 min) and resuspend in pre-warmed MT. Add 65 ul of cells to each 96-well plate. Depending on the degranulation activity for each particular CHMC donor, load 1000-1500 cells/well. Mix four times followed by a 1 hr incubation at 37° C. […] Stimulate cells by adding 25 ul of 6× anti-IgE solution to the appropriate plates. Add 25 ul MT to un-stimulated control wells. Mix twice following addition of the anti-IgE. Incubate at 37° C. for 30 minutes. […] Spin plates at 1000 rpm for 10 min to pellet cells. Transfer 25 ul of supernatant to a 96-well black bottom plate and add 100 ul of freshly diluted tryptase substrate solution to each well. Incubate plates at room temperature for 30 min.
In Table 1, all reported values are IC50s (in μM). […] In Table 1, all reported values are IC50s (in μM).

Setting [1] is: 3pt, read-out: LD Tryptase, CHMC, IgE, 3pt.
The mark [2] stands for this setting: 8pt, read-out: LD Tryptase, CHMC, IgE, 8pt.

In the case of `COc1cc(Nc2ncc(F)c(Nc3ccc4c(n3)NC(=O)C(C)(C)O4)n2)cc(OC)c1OC.O=S(=O)(O)c1ccc(O)cc1` [Compound 676, N4-(2,2-Dimethyl-3-oxo-4H-5-pyrid[1,4]oxazin-6-yl)-5-fluoro-N2-(3,4,5-trimethoxyphenyl)-2,4-pyrimidinediamine 4-Hydroxybenzenesulfonic Acid Salt], the IC50 is, setting by setting: under setting [1], less than 10 µM; under setting [2], less than 10 µM.
In the case of `COc1cc(Nc2ncc(F)c(Nc3ccc4c(n3)NC(=O)C(C)(C)O4)n2)cc(OC)c1OC.O=S(=O)(O)c1cccnc1` [Compound 678, N4-(2,2-Dimethyl-3-oxo-4H-5-pyrid[1,4]oxazin-6-yl)-5-fluoro-N2-(3,4,5-trimethoxyphenyl)-2,4-pyrimidinediamine 0.5 Pyridine-3-sulfonic Acid Salt], the IC50 by setting is: under setting [1], less than 10 µM; under setting [2], less than 10 µM.
Turning to `CCc1ccc(S(=O)(=O)O)cc1.COc1cc(Nc2ncc(F)c(Nc3ccc4c(n3)NC(=O)C(C)(C)O4)n2)cc(OC)c1OC` [Compound 679, N4-(2,2-Dimethyl-3-oxo-4H-5-pyrid[1,4]oxazin-6-yl)-5-fluoro-N2-(3,4,5-trimethoxyphenyl)-2,4-pyrimidinediamine p-Ethylbenzenesulfonic Acid Salt], the IC50 under setting [1] was less than 10 µM and the IC50 under setting [2] is less than 10 µM.
On to `CNC(=O)Cn1ccc2cc(Nc3ncc(F)c(Nc4ccc5c(n4)NC(=O)C(C)(C)O5)n3)ccc21` [Compound 683, N4-(2,2-Dimethyl-3-oxo-4H-5-pyrid[1,4]oxazin-6-yl)-5-fluoro-N2-[1-(N-methylamino)carbonylmethyleneindol-5-yl]-2,4-pyrimidinediamine], for which the IC50 under setting [1] was less than 10 µM and the IC50 under setting [2] is less than 10 µM.
Regarding `Cc1cc(Nc2ncc(F)c(Nc3ccc4c(n3)NC(=O)C(C)(C)O4)n2)cc(C)c1Cl` [Compound 684, N2-(4-Chloro-3,5-dimethylphenyl)-N4-(2,2-dimethyl-3-oxo-4H-5-pyrid[1,4]oxazin-6-yl)-5-fluoro-2,4-pyrimidinediamine p-Toluenesulfonic Acid Salt], the IC50 under setting [1] was less than 10 µM.
`CC1(C)Oc2ccc(Nc3nc(Nc4cc(Cl)c(O)c(Cl)c4)ncc3F)nc2NC1=O` [Compound 686, N4-(2,2-Dimethyl-3-oxo-4H-5-pyrid[1,4]oxazin-6-yl)-N2-(3,5-dichloro-4-hydroxyphenyl)-5-fluoro-2,4-pyrimidinediamine]: the IC50 under setting [1] was less than 10 µM and the IC50 under setting [2] is less than 10 µM.
Take `CN1C(=O)C(C)(C)Oc2ccc(Nc3ncc(F)c(Nc4ccc5c(n4)N(C)C(=O)C(C)(C)O5)n3)nc21` [Compound 687, N2,N4-Bis(3-oxo-2,2,4-trimethyl-5-pyrid[1,4]oxazin-6-yl)-5-fluoro-2,4-pyrimidinediamine]: the IC50 under setting [1] was less than 10 µM.
Consider `COC(=O)CN1C(=O)C(C)(C)Oc2ccc(Nc3ccnc(Nc4ccc5c(n4)N(CC(=O)OC)C(=O)C(C)(C)O5)n3)nc21` [Compound 688, N2,N4-Bis(2,2-dimethyl-4-carbomethoxymethyl-3-oxo-5-pyrid[1,4]oxazin-6-yl)-2,4-pyrimidinediamine], for which the IC50 under setting [1] was more than 10 µM.
For the molecule `COc1cc(Nc2ncc(F)c(Nc3ccc4c(n3)N(C)C(=O)C(C)(C)O4)n2)cc(OC)c1OC` [Compound 689, 5-Fluoro-N4-(3-oxo-2,2,4-trimethyl-5-pyrid[1,4]oxazin-6-yl)-N2-(3,4,5-trimethoxyphenyl)-2,4-pyrimidinediamine], under setting [2], the IC50 is less than 10 µM.
Consider `COC(=O)CN1C(=O)C(C)(C)Oc2ccc(Nc3nc(Nc4cc(OC)c(OC)c(OC)c4)ncc3F)nc21` [Compound 690, N4-(2,2-Dimethyl-4-carbomethoxymethyl-3-oxo-5-pyrid[1,4]oxazin-6-yl)-5-fluoro-N2-(3,4,5-trimethoxyphenyl)-2,4-pyrimidinediamine], for which the IC50 under setting [2] is less than 10 µM.
For the molecule `COC(=O)CN1C(=O)C(C)(C)Oc2ccc(N(CC(=O)OC)c3nc(Nc4cc(OC)c(OC)c(OC)c4)ncc3F)nc21` [Compound 691, N4-(2,2-Dimethyl-4-carbomethoxymethyl-3-oxo-5-pyrid[1,4]oxazin-6-yl)-5-fluoro-N4-carbomethoxymethyl-N2-(3,4,5-trimethoxyphenyl)-2,4-pyrimidinediamine], the IC50 under setting [1] was less than 10 µM.
For `COc1cc(Nc2ncc(F)c(Nc3ccc4c(n3)NC(=O)C(C)(C)O4)n2)cc(OC)c1OCCN1CCOCC1` [Compound 692, N2-[3,5-Dimethoxy-4-(2-(N-morpholino)ethyloxo)phenyl]-N4-(2,2-dimethyl-3-oxo-4H-5-pyrid[1,4]oxazin-6-yl)-5-fluoro-2,4-pyrimidinediamine], the IC50 reads like this: under setting [1], less than 10 µM; under setting [2], less than 10 µM.
For the molecule `CC1(C)Oc2ccc(Nc3ncc(F)c(Nc4ccc5c(n4)NC(=O)C(C)(C)O5)n3)nc2NC1=O` [Compound 693, N2,N4-Bis(2,2-dimethyl-3-oxo-4H-5-pyrid[1,4]oxazin-6-yl)-5-fluoro-2,4-pyrimidinediamine], under setting [1], the IC50 was less than 10 µM.
Regarding `Cc1nn(C)c2cc(Nc3ncc(F)c(Nc4ccc5c(n4)NC(=O)C(C)(C)O5)n3)ccc12` [Compound 812, N2-(1,3-Dimethylindazol-6-yl)-N4-(2,2-dimethyl-3-oxo-4H-5-pyrid[1,4]oxazin-6-yl)-5-fluoro-2,4-pyrimidinediamine], under setting [2], the IC50 was less than 10 µM.
`Cc1n[nH]c2cc(Nc3ncc(F)c(Nc4ccc5c(n4)NC(=O)C(C)(C)O5)n3)ccc12` [Compound 813, N4-(2,2-Dimethyl-3-oxo-4H-5-pyrid[1,4]oxazin-6-yl)-5-fluoro-N2-(3-methyl-1H-indazol-6-yl)-2,4-pyrimidinediamine]: under setting [2], the IC50 is less than 10 µM.
Turning to `COCCCn1ncc2cc(Nc3ncc(F)c(Nc4ccc5c(n4)NC(=O)C(C)(C)O5)n3)ccc21` [Compound 814, N4-(2,2-Dimethyl-3-oxo-4H-5-pyrid[1,4]oxazin-6-yl)-5-fluoro-N2-[1-(3-methoxypropyl)indazol-5-yl]-2,4-pyrimidinediamine], the IC50 under setting [2] is less than 10 µM.
On the same count and under the same terms, as for `CC1(C)Oc2ccc(Nc3nc(Nc4ccc5c(cnn5CCCN5C(=O)c6ccccc6C5=O)c4)ncc3F)cc2NC1=O` [Compound 817, N4-(2,2-Dimethyl-3-oxo-4H-benz[1,4]oxazin-6-yl)-5-fluoro-N2-[1-[3-(N-phthalimidopropyl)]indazol-5-yl]-2,4-pyrimidinediamine], the figure is less than 10 µM; as for `C[C@@H]1Oc2ccc(Nc3nc(Nc4ccc5c(cnn5CCCN5C(=O)c6ccccc6C5=O)c4)ncc3F)cc2NC1=O` [Compound 818, (S)-5-Fluoro-N4-(2-methyl-3-oxo-2H,4H-benz[1,4]oxazin-6-yl)-N2-[1-[3-(N-phthalimidopropyl)]indazol-5-yl]-2,4-pyrimidinediamine], less than 10 µM.
Turning to `Cn1nc(N)c2cc(Nc3ncc(F)c(Nc4ccc5c(n4)NC(=O)C(C)(C)O5)n3)ccc21` [Compound 837, N2-(3-A mino-1-methylindazol-5-yl)-N4-(2,2-dimethyl-3-oxo-4H-5-pyrid[1,4]oxazin-6-yl)-5-fluoro-2,4-pyrimidinediamine], the IC50 was less than 10 µM under setting [1] and less than 10 µM under setting [2].
`CC1(C)Oc2ccc(Nc3nc(Nc4ccc5c(cnn5CCCO)c4)ncc3F)nc2NC1=O` [Compound 838, N4-(2,2-Dimethyl-3-oxo-4H-5-pyrid[1,4]oxazin-6-yl)-5-fluoro-N2-[1-(3-hydroxypropyl)indazol-5-yl]-2,4-pyrimidinediamine]: the IC50 runs as follows: under setting [1], less than 10 µM; under setting [2], less than 10 µM.
Take `COCCCn1ncc2ccc(Nc3ncc(F)c(Nc4ccc5c(n4)NC(=O)C(C)(C)O5)n3)cc21` [Compound 839, N4-(2,2-Dimethyl-3-oxo-4H-5-pyrid[1,4]oxazin-6-yl)-5-fluoro-N2-[1-(3-methoxypropyl)indazol-6-yl]-2,4-pyrimidinediamine]: the IC50 reads like this: under setting [1], less than 10 µM; under setting [2], less than 10 µM.
As to `CC1(C)Oc2ccc(Nc3nc(Nc4ccc5c(cnn5CCCNS(=O)(=O)C(F)(F)F)c4)ncc3F)nc2NC1=O` [Compound 844, N4-(2,2-Dimethyl-3-oxo-4H-5-pyrid[1,4]oxazin-6-yl)-5-fluoro-N2-[1-[3-(N-trifluoromethylsulfonylamino)propyl]indazol-5-yl]-2,4-pyrimidinediamine], the IC50 under setting [2] was more than 10 µM.
Take `CC(C)(C)C(=O)NCCCn1ncc2cc(Nc3ncc(F)c(Nc4ccc5c(n4)NC(=O)C(C)(C)O5)n3)ccc21` [Compound 852, N4-(2,2-Dimethyl-3-oxo-4H-5-pyrido[1,4]oxazin-6-yl)-5-fluoro-N2-[1-(3-pivalamidopropyl)indazol-5-yl]-2,4-pyrimidinediamine]: the IC50 under setting [2] was less than 10 µM.
With `CC1(C)Oc2ccc(Nc3nc(Nc4ccc5c(cnn5CCCN5C(=O)CCC5=O)c4)ncc3F)cc2NC1=O` [Compound 855, N4-(2,2-Dimethyl-3-oxo-4H-benz[1,4]oxazin-6-yl)-5-fluoro-N2-[1-[3-(N-succinimidopropyl)]indazol-5-yl]-2,4-pyrimidinediamine], the IC50 by setting is: under setting [1], less than 10 µM; under setting [2], less than 10 µM.
